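The compound was tested at five concentrations on cells cultured in 96-well plates, with a 48-hour exposure period. TGI: total growth inhibition.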
Columns and labels:
Test in all cases: NCI tumour cell line growth inhibition, 48 h
[1] = test system: HT29 colon
[2] = test system: OVCAR-8 ovarian
[3] = test system: LOX IMVI melanoma
[4] = test system: SF-295 CNS
[5] = test system: U251 CNS
[6] = test system: HCT-15 colon
[7] = test system: OVCAR-4 ovarian
[8] = test system: SF-539 CNS
[9] = test system: HOP-62 NSCLC
[10] = test system: NCI/ADR-RES ovarian
[11] = test system: TK-10 renal
[12] = test system: M14 melanoma
[13] = test system: MALME-3M melanoma
[14] = test system: UACC-62 melanoma
[15] = test system: SK-MEL-5 melanoma
[16] = test system: CCRF-CEM leukemia
[17] = test system: COLO 205 colon
[18] = test system: SNB-75 CNS
[19] = test system: HCC-2998 colon
[20] = test system: 786-0 renal
[21] = test system: MDA-N
[22] = test system: RXF 393 renal
[23] = test system: A549 NSCLC
[24] = test system: CAKI-1 renal
[25] = test system: HOP-92 NSCLC
[26] = test system: NCI-H522 lung
[27] = test system: KM12 colon
[28] = test system: SW-620 colon
[29] = test system: HS 578T breast
[30] = test system: NCI-H460 lung
[31] = test system: ACHN renal
[32] = test system: MDA-MB-435
[33] = test system: SF-268 CNS
[34] = test system: MCF7 breast
[35] = test system: NCI-H23 lung
[36] = test system: SNB-19 CNS
[37] = test system: K-562 leukemia
[38] = test system: HCT-116 colon
[39] = test system: IGROV1 ovarian
[40] = test system: UO-31 renal
[41] = test system: NCI-H226 lung
[42] = test system: UACC-257 melanoma
[43] = test system: RPMI-8226 leukemia
[44] = test system: DU-145 prostate
[45] = test system: BT-549 breast
[46] = test system: MDA-MB-231 breast
[47] = test system: A498 renal
[48] = test system: OVCAR-3 ovarian
[49] = test system: SN12C renal
[50] = test system: PC-3 prostate
[51] = test system: MOLT-4 leukemia
[52] = test system: SK-MEL-28 melanoma
[53] = test system: SK-OV-3 ovarian
[54] = test system: OVCAR-5 ovarian
[55] = test system: EKVX NSCLC
[56] = test system: SR leukemia
[57] = test system: HL-60(TB) leukemia
[58] = test system: SK-MEL-2 melanoma
[59] = test system: T-47D breast

COc1ccc(-c2cc(=O)c3cc(OC)c(OC)cc3[nH]2)cc1OC
TGI [1]: > 100 µM | TGI [2]: > 100 µM | TGI [3]: > 100 µM | TGI [4]: > 100 µM | TGI [5]: > 100 µM | TGI [6]: > 100 µM | TGI [7]: > 100 µM | TGI [8]: > 100 µM | TGI [9]: > 100 µM | TGI [10]: > 100 µM | TGI [11]: > 100 µM | TGI [12]: > 100 µM | TGI [13]: > 100 µM | TGI [14]: > 100 µM | TGI [15]: > 100 µM | TGI [16]: > 100 µM | TGI [17]: > 100 µM | TGI [18]: > 100 µM | TGI [19]: > 100 µM | TGI [20]: > 100 µM | TGI [21]: > 100 µM | TGI [22]: > 100 µM | TGI [23]: > 100 µM | TGI [24]: > 100 µM | TGI [25]: > 100 µM | TGI [26]: > 100 µM | TGI [27]: > 100 µM | TGI [28]: > 100 µM | TGI [29]: > 100 µM | TGI [30]: > 100 µM | TGI [31]: > 100 µM | TGI [32]: > 100 µM | TGI [33]: > 100 µM | TGI [34]: > 100 µM | TGI [35]: > 100 µM | TGI [36]: > 100 µM | TGI [37]: > 100 µM | TGI [38]: > 100 µM | TGI [39]: > 100 µM | TGI [40]: > 100 µM | TGI [41]: > 100 µM | TGI [42]: > 100 µM | TGI [43]: > 100 µM | TGI [44]: > 100 µM | TGI [45]: > 100 µM | TGI [46]: > 100 µM | TGI [47]: > 100 µM | TGI [48]: > 100 µM | TGI [49]: > 100 µM | TGI [50]: > 100 µM | TGI [51]: > 100 µM | TGI [52]: > 100 µM | TGI [53]: > 100 µM | TGI [54]: > 100 µM | TGI [55]: > 100 µM | TGI [56]: > 100 µM

CN(C)c1ccc(/C=C2\CCCCCC2=O)cc1
TGI [1]: > 100 µM | TGI [2]: > 100 µM | TGI [4]: > 100 µM | TGI [8]: > 100 µM | TGI [9]: > 100 µM | TGI [10]: > 100 µM | TGI [11]: > 100 µM | TGI [12]: > 100 µM | TGI [13]: > 100 µM | TGI [14]: > 100 µM | TGI [57]: > 100 µM | TGI [15]: > 100 µM | TGI [16]: > 100 µM | TGI [17]: > 100 µM | TGI [18]: > 100 µM | TGI [19]: > 100 µM | TGI [20]: > 100 µM | TGI [21]: > 100 µM | TGI [22]: > 100 µM | TGI [23]: > 100 µM | TGI [58]: > 100 µM | TGI [24]: > 100 µM | TGI [59]: > 100 µM | TGI [27]: > 100 µM | TGI [28]: > 100 µM | TGI [30]: > 100 µM | TGI [31]: > 100 µM | TGI [32]: > 100 µM | TGI [33]: > 100 µM | TGI [34]: > 100 µM | TGI [36]: > 100 µM | TGI [37]: > 100 µM | TGI [38]: > 100 µM | TGI [39]: > 100 µM | TGI [40]: > 100 µM | TGI [42]: > 100 µM | TGI [43]: > 100 µM | TGI [44]: > 100 µM | TGI [45]: > 100 µM | TGI [46]: > 100 µM | TGI [47]: > 100 µM | TGI [48]: > 100 µM | TGI [49]: > 100 µM | TGI [50]: > 100 µM | TGI [51]: > 100 µM | TGI [52]: > 100 µM | TGI [53]: > 100 µM | TGI [54]: > 100 µM | TGI [55]: > 100 µM | TGI [56]: > 100 µM

CSC(=NCCCN=C(NS(=O)(=O)c1ccc(Cl)cc1)SC)NS(=O)(=O)c1ccc(Cl)cc1
TGI [1]: > 100 µM | TGI [2]: > 100 µM | TGI [3]: 70.6 µM | TGI [4]: > 100 µM | TGI [5]: > 100 µM | TGI [6]: > 100 µM | TGI [7]: > 100 µM | TGI [8]: > 100 µM | TGI [9]: > 100 µM | TGI [10]: > 100 µM | TGI [11]: > 100 µM | TGI [12]: > 100 µM | TGI [13]: 72.7 µM | TGI [14]: > 100 µM | TGI [57]: 47.1 µM | TGI [16]: > 100 µM | TGI [17]: 51.6 µM | TGI [18]: > 100 µM | TGI [19]: 83.6 µM | TGI [20]: > 100 µM | TGI [21]: 61.4 µM | TGI [58]: 43.6 µM | TGI [24]: > 100 µM | TGI [25]: 67.9 µM | TGI [59]: > 100 µM | TGI [28]: > 100 µM | TGI [30]: > 100 µM | TGI [31]: > 100 µM | TGI [32]: > 100 µM | TGI [33]: > 100 µM | TGI [34]: 52.8 µM | TGI [36]: > 100 µM | TGI [37]: > 100 µM | TGI [38]: > 100 µM | TGI [39]: > 100 µM | TGI [40]: 40.5 µM | TGI [42]: > 100 µM | TGI [43]: > 100 µM | TGI [44]: > 100 µM | TGI [46]: > 100 µM | TGI [47]: 73.1 µM | TGI [48]: 80 µM | TGI [49]: > 100 µM | TGI [50]: 35.2 µM | TGI [51]: 33.2 µM | TGI [52]: > 100 µM | TGI [53]: > 100 µM | TGI [54]: > 100 µM | TGI [55]: 53.1 µM | TGI [56]: > 100 µM
